Measured values taken from patent US20030144255A1, “Compositions for prevention and treatment of dementia” (priority 2002, published 2003).

Experiments:
aged rats [1] = assay: Passive avoidance learning test in aged rats; type: in vivo, rat; details: aged male rats of transgenic strain, test started on day 14 of treatment, vs control group
Description: (§1) Male (3 to 27 months old) rats of transgenic strain were used. The aged rats were divided into the following four groups.
(§2) 1) Control group: Repeated administration of placebo pill.
(§3) 2) 4,4′-diaminodiphenylsulphone group: Repeated oral administration of 4,4 -diaminodiphenylsulphone 1 mg/kg.
(§4) 3) Cholinesterase inhibitor group: Repeated oral administration of donepezil 0.3 mg/kg.
(§5) 4) Combination group: Repeated oral administration of 4,4′-diaminodiphenylsulphone 3 mg/kg and donepezil 0.3 mg/kg.
(§6) In the combination group, 4,4′-diaminodiphenylsulphone was administered 30 minutes after administration of donepezil.
(§7) Passive avoidance learning test was started on day 14 of treatment, and Morris water maze learning test on day 20 of treatment.
(§8) On each day of experiment, 4,4′-diaminodiphenylsulphone and a cholinesterase inhibitor were administered 30 minutes and 1 hour, respectively, before initiation of the trial.
The passive avoidance learning test was performed using a chamber consisting of light and dark compartments. […]
In each trial, the latency from opening of the slide door until the animal moved to the dark compartment (step-through latency) was measured.

aged rats [2] = assay: Morris water maze learning test in aged rats; type: in vivo, rat; details: aged male rats of transgenic strain, test started on day 20 of treatment, vs control group
Description: as §1, §2, §3, §4, §5, §6, §7, §8
Same animals used in the passive avoidance test were subjected for the water maze task. However, some rats can not swim well in the water tank, thus they were excluded in the water maze task. The water maze learning test was performed on young rats (saline, 10 animals) and aged rats (control group, 9 animals; 4,4′-diaminodiphenylsulphone group, 9 animals; Compound B group, 8 animals; combination group, 8 animals). […]

Row | Compound | passive avoidance learning deficit (step-through latency / avoidance time) (aged rats [1]; repeated oral 1 mg/kg) | water maze learning deficit (latency to find platform submerged in the water) (aged rats [2]; repeated oral 1 mg/kg) | passive avoidance learning deficit (step-through latency / avoidance time) (aged rats [1]; repeated oral 0.3 mg/kg) | water maze learning deficit (latency to find platform submerged in the water) (aged rats [2]; repeated oral 0.3 mg/kg)
1 | Nc1ccc(S(=O)(=O)c2ccc(N)cc2)cc1 [4,4′-diaminodiphenylsulphone] | significant improvement of the learning deficit | significant improvement in water maze learning deficit |  | 
2 | COc1cc2c(cc1OC)C(=O)C(CC1CCN(Cc3ccccc3)CC1)C2.Cl (stereo not shown) [donepezil, 2,3-dihydro-5,6-dimethoxy-2-[[1-(phenylmethyl)-4-piperidinyl]methyl]-1H-inden-1-one hydrochloride] |  |  | significant improvement of the learning deficit | significant improvement in water maze learning deficit
